Assay [1] concerns KE-4CTL reacting with HLA-A2402-expressing VA-13 cells. Kind of assay: IFN-γ production by KE-4CTL against peptide-pulsed HLA-A2402-expressing VA-13 cells (ELISA). Particulars: peptide 10 μM for 2 hours on HLA-A2402-expressing VA-13 cells, 18 hours culture with 2×10^4 KE-4CTLs. Format: cell-based, human. On the procedure: Concretely, when peripheral blood lymphocytes are isolated from HLA-A24 antigen-positive human and candidate peptides are added thereto to stimulate in vitro, it can be evaluated by determining whether or not CTLs that specifically recognize the candidate peptide-pulsed HLA-A24-positive cells are induced. Here, the presence or absence of the induction of the CTLs can be examined, for instance, by assaying an amount of various cytokines (for instance, IFN-γ) produced by CTLs in reaction with the antigen peptide presenting cells by means of enzyme-linked immunosorbent assay (ELISA) or the like. As the antigen peptide presenting cells (target cells) during the assay, there are included, for instance, esophageal cancer cell line KE-4 (FERM BP-5955). In addition, the induction can be examined by the method for assaying CTL toxicity on ^51Cr-labeled antigen peptide presenting cells (^51Cr-release assay, Int. J. Cancer, 58:317, 1994). Further, the induction can be examined by pulsing with candidate peptides to cells resulting from introduction of an expression plasmid into, for instance, COS-7 cells (ATCC No. CRL1651) and VA-13 cells (RIKEN CELL BANK), the expression plasmid for expressing HLA-A24 cDNA [Cancer Res., 55:4248-4252 (1995); Genbank Accession No. M64740]; reacting KE-4CTL (FERM BP-5954), or CTLs prepared in the manner described above, or the like with the resulting cells; and assaying an amount of various cytokines (for instance, IFN-γ) that are produced by CTLs.
HLA-A2402 cDNA (listed in Genbank Accession No. M64740) was obtained from KE-4 in accordance with the description in the publication (Cancer Res., 55:4248, 1995), and a recombinant plasmid was prepared by incorporating the resulting product into an expression vector pCR3 (manufactured by INVITROGEN). This plasmid was transfected to 10^4 cells of VA-13 cells (available from RIKEN CELL BANK; Ann. Med Exp. Biol. Fenn., 44:242, 1966) by lipofectin method in accordance with the publication (J. Exp. Med., 187:277, 1998), to thereby express HLA-A2402. Each of the peptides “725-733,” “740-750,” “746-755,” “746-756” and “758-766*” among those listed in Example 1 was added at 10 μM in 2 hours, and thereafter the mixture was cultured for 18 hours together with 2×10^4 of KE-4CTLs. An amount of IFN-γ produced by KE-4CTLs in the culture supernatant was assayed by ELISA method. […] Thereafter, the resulting product was developed by using Peroxidase Developing Kit T (manufactured by Sumitomo Bakelite Company, Limited), and thereafter its absorbance (405 nm) was determined. The resulting value was quantified by comparing it with the value obtained from standard IFN-γ. […]

Assay [2] relates to HLA-A2402-positive KE-4 cells. Put plainly: Induction of CTLs from peripheral blood lymphocytes by peptide; IFN-γ release against KE-4 target cells (ELISA). Format: cell-based, human. Particulars: for induction of antigen peptide-specific CTLs from peripheral blood lymphocytes: conclusion from Table 1; for reactivity of peptide-stimulated peripheral blood lymphocytes against KE-4 compared with negative control QG56: from Table 1; for IFN-γ (pg/ml) in Supernatant: peripheral blood lymphocytes (HLA-A24 homo healthy donors) stimulated three times with 10 μM peptide, 8×10^4 effectors, target cells KE-4 (1×10^4). On the procedure:
(§1) First, lymphocytes were isolated by Ficol method from peripheral blood of healthy donors whose HLA-A locus is A24 homo. The lymphocytes were aliquoted to a 24-well plate so as to be 2×10^6 cells/well, and cultured in a culture medium containing 45% RPMI 1640 medium, 45% AIM-V medium, 10% FCS and 100 U/ml IL-2. Each of the above-mentioned tumor antigen peptides was added to the culture medium so as to have a concentration of 10 μM, to stimulate the peripheral blood lymphocytes. One week later, the above-mentioned tumor antigen peptide was added thereto so as to have a concentration of 10 μM, together with about 2×10^5 of X-ray irradiated (50 Gy) peripheral blood lymphocytes, to carry out a second stimulation of the lymphocytes. After another week, a third stimulation was carried out by repeating the procedures in the same manner as above. After one week from the third stimulation, the cultured lymphocytes were collected. The amount of IFN-γ of the supernatant was assayed by ELISA, the supernatant being produced by reacting the above-mentioned lymphocytes (8×10^4) with HLA-A2402-positive KE-4 cells in which the tumor antigen protein was expressed and with HLA-A2402-negative QG56 cells in which the tumor antigen protein was expressed, respectively, as targeted cells (1×10^4).
(In an ELISA, binding on a coated surface is turned into a signal by an enzyme label.)

Assay [3] concerns HLA-A2402-negative QG56 cells. Put plainly: Induction of CTLs from peripheral blood lymphocytes by peptide; IFN-γ release against QG56 target cells (ELISA). The class given is cell-based. Particulars: peripheral blood lymphocytes (HLA-A24 homo healthy donors) stimulated three times with 10 μM peptide, 8×10^4 effectors; target cells QG56 (1×10^4), negative control. On the procedure: as §1

Results on 4 sequences are retold here after US6838445B1, “Tumor antigen peptide originating in SART-1” (Kyogo Itoh, priority 1998, dated 2005).

Where no end group is shown, it is not given here.

In the case of AFRQLSHRF [725-733], the “activity as HLA-A24-restricted tumor antigen peptide (amount of IFN-γ produced by KE-4CTLs, FIG. 1)” value in assay [1] is reported as “function as HLA-A24-restricted tumor antigen peptides”.
Still for that read-out and setting: the result for KMKTERRMKKL [740-750] reads “function as HLA-A24-restricted tumor antigen peptides”.
Take RMKKLDEEAL [746-755]: in assay [1], the “activity as HLA-A24-restricted tumor antigen peptide (amount of IFN-γ produced by KE-4CTLs, FIG. 1)” value is reported as “function as HLA-A24-restricted tumor antigen peptides”. In assay [2], the “induction of antigen peptide-specific CTLs from peripheral blood lymphocytes” value was “antigen peptide-specific CTLs were induced”, the “reactivity of peptide-stimulated peripheral blood lymphocytes against KE-4 compared with negative control QG56” value was “stronger reactivities against KE-4” and the “IFN-γ (pg/ml) in Supernatant” value is 595.5 pg/mL. The “IFN-γ (pg/ml) in Supernatant” value in assay [3] stood at 281.4 pg/mL.
On the same counts, the results for RMKKLDEEALL [746-756] are “function as HLA-A24-restricted tumor antigen peptides”, “antigen peptide-specific CTLs were induced”, “stronger reactivities against KE-4”, 701.5 pg/mL and 392.0 pg/mL.
